Reference: ChEMBL document CHEMBL1146711, “A facile synthesis of 1-ethoxy-4-cyano-5-ethoxycarbonyl-3H-azuleno[1,2-c]pyran-3-one, a selective 15-lipoxygenase inhibitor” (Bioorg Med Chem Lett, 2004)

Experiments:
[1] = target: T1, Polyunsaturated fatty acid 5-lipoxygenase (Homo sapiens) (UniProt P09917); assay: Inhibitory concentration against 5-lipoxygenase was determined; No inhibition
T1 sequence (whole entry): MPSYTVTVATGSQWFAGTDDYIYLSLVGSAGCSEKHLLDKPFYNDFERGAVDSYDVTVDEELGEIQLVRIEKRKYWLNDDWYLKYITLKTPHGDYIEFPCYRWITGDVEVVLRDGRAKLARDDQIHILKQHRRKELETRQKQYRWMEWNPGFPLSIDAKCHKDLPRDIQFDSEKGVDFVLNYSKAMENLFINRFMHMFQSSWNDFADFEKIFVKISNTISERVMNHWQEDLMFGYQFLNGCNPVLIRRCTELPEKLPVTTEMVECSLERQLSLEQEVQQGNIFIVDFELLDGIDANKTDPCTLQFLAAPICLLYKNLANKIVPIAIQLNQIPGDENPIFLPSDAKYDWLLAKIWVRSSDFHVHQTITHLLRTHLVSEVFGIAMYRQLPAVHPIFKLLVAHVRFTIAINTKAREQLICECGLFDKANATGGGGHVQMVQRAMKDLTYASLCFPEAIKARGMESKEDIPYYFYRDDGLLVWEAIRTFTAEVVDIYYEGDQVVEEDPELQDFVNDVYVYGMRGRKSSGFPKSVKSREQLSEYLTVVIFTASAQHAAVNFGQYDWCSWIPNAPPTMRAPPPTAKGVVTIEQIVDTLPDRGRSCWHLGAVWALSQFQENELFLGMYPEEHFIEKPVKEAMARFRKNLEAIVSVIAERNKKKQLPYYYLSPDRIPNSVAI

[2] = Inhibitory concentration against lipid peroxidase was determined; No inhibition
[3] = target: Phospholipase A2, major isoenzyme (Sus scrofa) (UniProt P00592); assay: Inhibitory concentration against phospholipase A2; No inhibition
Phospholipase A2, major isoenzyme (Sus scrofa), sequence (P00592 23-146 limits assumed): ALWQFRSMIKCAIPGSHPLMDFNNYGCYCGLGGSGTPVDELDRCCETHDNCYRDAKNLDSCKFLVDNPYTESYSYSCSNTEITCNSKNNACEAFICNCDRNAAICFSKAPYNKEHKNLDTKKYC

[4] = target: Protein kinase C (PKC) (Homo sapiens) (UniProt O94806+P41743+P17252+P05129+Q05655+P05771+Q05513+Q02156+P24723+Q15139+Q04759); assay: Inhibition of protein kinase C (No inhibition); type: protein assay
[5] = target: Cyclooxygenase (Homo sapiens) (UniProt P35354+P23219); assay: Inhibitory concentration against prostaglandin G/H synthase; No inhibition; type: protein assay

Measured: Activity

CCOC(=O)c1c2cccccc-2c2c(OCC)oc(=O)c(C#N)c12
> 300 µM: all assays above

O=C1CCN(c2ccccc2)N1
> 300 µM: [3] | [4] | [5]
